Measurements: patent publication US9879043B1, “Synthesis of non-natural cofactor analogs of S-adenosyl-L-methionine using methionine adenosyltransferase” (University of Kentucky Research Foundation, priority 2013, dated 2018)

Biological target: T1, Sulfolobus solfataricus MAT (sMAT) (Saccharolobus solfataricus, UniProt Q980S9)
T1 sequence (Q980S9 1-404): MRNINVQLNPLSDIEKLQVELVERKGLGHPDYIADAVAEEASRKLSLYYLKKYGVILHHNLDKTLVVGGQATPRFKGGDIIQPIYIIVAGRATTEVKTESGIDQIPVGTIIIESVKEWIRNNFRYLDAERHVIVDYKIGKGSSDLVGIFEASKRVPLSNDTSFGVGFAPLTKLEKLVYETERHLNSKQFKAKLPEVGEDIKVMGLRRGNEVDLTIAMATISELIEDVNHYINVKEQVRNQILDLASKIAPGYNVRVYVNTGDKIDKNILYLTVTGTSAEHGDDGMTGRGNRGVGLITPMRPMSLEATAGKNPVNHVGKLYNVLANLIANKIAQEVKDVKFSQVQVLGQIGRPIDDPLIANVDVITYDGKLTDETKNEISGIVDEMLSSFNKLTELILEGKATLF
Assay: not given
Assay type: biochemical
Settings: 2 mM analog, 1 mM ATP, 5 μM sMAT, pH 8.0, 4 h at 65° C.; average of two assays
Experimental: In-vitro sMAT assay: In vitro sMAT reactions were conducted in a volume of 50 μl with 2 mM S/Se-alkylated analog, 1 mM ATP and 5 μM purified sMAT in 25 mM Tris buffer pH 8.0, 5 mM MgCl2, 50 mM KCl for 4 h at 65° C. Reactions were quenched by adding an equal volume of methanol followed by centrifugation (10,000×g for 15 min) to remove the precipitated protein and product formation for each reaction was subsequently analyzed by reverse phase HPLC (RP-HPLC) using method described below. For each reaction, percent yield was based upon the integration of species at 254 nm and calculated by dividing the integrated area of product and/or decomposed product by the sum of integrated area of product and/or decomposed product and the remaining substrate. The assays were repeated twice under identical conditions, and Table 4 (and FIG. 17) represents an average value of two assays. The inclusion of adenine and 5′-R-thio-5′-adenosine in these calculations is based upon the established SAM and ATP chemical decomposition pathways which indicate adenine and 5′-R-thio-5′-adenosine to only derive from SAM (not ATP). All putative products were subsequently confirmed by high resolution electrospray ionization (ESI) mass spectra with positive (+) and/or negative (−) mode.
RP-HPLC method: Reactions were quenched by the addition of equal volume of methanol followed by centrifugation at 10,000 g for 15 min to remove precipitated protein before applying on an analytical Varian ProStar HPLC [Luna C18 column, 5 μm, 4.6 mm×250 mm; Phenomenex, Torrance, Calif., USA; gradient of 10% B to 40% B over 15 min, 40% B to 75% B over 5 min (A=10 mM NaH2PO4, 5 mM octane sulfonic acid, pH was adjusted to 3.5 using phosphoric acid; B=acetonitrile) flow rate=1 mL min^−1; A254].

Structure (SMILES) | Percentage Turn-Over (sMAT)
CCCCSCC[C@H](N)C(=O)O [compound 13, (2S)-2-amino-4-(butylsulfanyl)butanoic acid] | 27%
CC(C)CSCC[C@H](N)C(=O)O [compound 14, (2S)-2-amino-4-[(2-methylpropyl)sulfanyl]butanoic acid] | 57%
C=C/C=C/CSCC[C@H](N)C(=O)O [compound 16, (2S)-2-amino-4-[(2E)-penta-2,4-dien-1-ylsulfanyl]butanoic acid] | 14%
[N-]=[N+]=NCCSCC[C@H](N)C(=O)O [compound 17, (2S)-2-amino-4-[(2-azidoethyl)sulfanyl]butanoic acid] | 50%
CC(C)CCSCC[C@H](N)C(=O)O [compound 18, (2S)-2-amino-4-[(3-methylbutyl)sulfanyl]butanoic acid] | 36%
CC(C)=CCSCC[C@H](N)C(=O)O [compound 19, (2S)-2-amino-4-[(3-methylbut-2-en-1-yl)sulfanyl]butanoic acid] | 12%

Biological target: human MAT II catalytic alpha and regulatory beta subunit (hMAT2) (Homo sapiens, UniProt P31153)
Assay: MAT assay, turnover of S/Se-Met analogs to S(Se)AM analogs (RP-HPLC end point)
Assay type: biochemical
Settings: 2 mM Met analog, 1 mM ATP, 5 μM MAT, pH 8, 4 h, 37° C.; average of two assays
Experimental: (§1) Standard uniform assay conditions (2 mM Met analog, 1 mM ATP, 5 μM MAT, 25 mM Tris, 5 mM MgCl2, 50 mM KCl, pH 8, 4 h) were adopted to facilitate this broad assessment. For the thermophilic counterpart (mMAT), reactions were conducted at 65° C., while all other reactions were incubated at 37° C. Production of SAM analogs was determined by an RP-HPLC end point assay to afford complete analysis of the desired SAM analog and/or any corresponding degradation products known to directly derive from the desired SAM analog intermediate.
(§2) To monitor MAT reactions, analytical RP HPLC employed a Luna C18 column (5 μm, 4.6 mm×250 mm; Phenomenex, Torrance, Calif., USA) [gradient of 10% B to 40% B over 15 min, 40% B to 75% B over 5 min (A=10 mM NaH2PO4, 5 mM octane sulfonic acid, pH was adjusted to 3.5 using phosphoric acid; B=acetonitrile) flow rate=1 mL min^−1; A254].
(§3) The sMAT and mMAT reactions were conducted at 65° C. while hMATs and eMAT were incubated at 37° C. Reactions were quenched by adding an equal volume of methanol followed by centrifugation (10,000×g for 15 min) to remove the precipitated protein and product formation for each reaction was subsequently analyzed by RP-HPLC using Method D (FIG. 15, first column). For each reaction, percent yield was based upon the integration of species at 254 nm and calculated by dividing the integrated area of product and/or decomposed product by the sum of integrated area of product and/or decomposed product and the remaining substrate. The assays were repeated twice under identical conditions, and Table 2 (and FIG. 5) represents an average value of two assays. The inclusion of adenine and 5′-R-thio-5′-adenosine in these calculations is based upon the established SAM and ATP chemical decomposition pathways which indicate adenine and 5′-R-thio-5′-adenosine to only derive from SAM (not ATP). All putative products were subsequently confirmed by high resolution electrospray ionization (ESI) mass spectra with positive (+) and/or negative (−) mode.

Structure (SMILES) | Percentage Turn-over hMAT2
CCCCSCC[C@H](N)C(=O)O [compound 13, (2S)-2-amino-4-(butylsulfanyl)butanoic acid] | 13%
CC(C)CSCC[C@H](N)C(=O)O [compound 14, (2S)-2-amino-4-[(2-methylpropyl)sulfanyl]butanoic acid] | 0%
C=C/C=C/CSCC[C@H](N)C(=O)O [compound 16, (2S)-2-amino-4-[(2E)-penta-2,4-dien-1-ylsulfanyl]butanoic acid] | 44%
[N-]=[N+]=NCCSCC[C@H](N)C(=O)O [compound 17, (2S)-2-amino-4-[(2-azidoethyl)sulfanyl]butanoic acid] | 49%
CC(C)CCSCC[C@H](N)C(=O)O [compound 18, (2S)-2-amino-4-[(3-methylbutyl)sulfanyl]butanoic acid] | 0%
CC(C)=CCSCC[C@H](N)C(=O)O [compound 19, (2S)-2-amino-4-[(3-methylbut-2-en-1-yl)sulfanyl]butanoic acid] | 6%

Biological target: human MAT I catalytic subunit alpha (hMAT1A) (Homo sapiens, UniProt Q00266)
Assay: as above
Assay type: biochemical
Settings: 2 mM Met analog, 1 mM ATP, 5 μM MAT, pH 8, 4 h, 37° C.; average of two assays
Experimental: as §1, §2, §3

Structure (SMILES) | Percentage Turn-over hMAT1A
CCCCSCC[C@H](N)C(=O)O [compound 13, (2S)-2-amino-4-(butylsulfanyl)butanoic acid] | 0%
CC(C)CSCC[C@H](N)C(=O)O [compound 14, (2S)-2-amino-4-[(2-methylpropyl)sulfanyl]butanoic acid] | 0%
C=C/C=C/CSCC[C@H](N)C(=O)O [compound 16, (2S)-2-amino-4-[(2E)-penta-2,4-dien-1-ylsulfanyl]butanoic acid] | 2%
[N-]=[N+]=NCCSCC[C@H](N)C(=O)O [compound 17, (2S)-2-amino-4-[(2-azidoethyl)sulfanyl]butanoic acid] | 4%
CC(C)CCSCC[C@H](N)C(=O)O [compound 18, (2S)-2-amino-4-[(3-methylbutyl)sulfanyl]butanoic acid] | 0%
CC(C)=CCSCC[C@H](N)C(=O)O [compound 19, (2S)-2-amino-4-[(3-methylbut-2-en-1-yl)sulfanyl]butanoic acid] | 0%

Biological target: human MAT II catalytic alpha subunit alone (hMAT2A) (Homo sapiens, UniProt P31153)
Assay: as above
Assay type: biochemical
Settings: 2 mM Met analog, 1 mM ATP, 5 μM MAT, pH 8, 4 h, 37° C.; average of two assays
Experimental: as §1, §2, §3

Structure (SMILES) | Percentage Turn-over hMAT2A
CCCCSCC[C@H](N)C(=O)O [compound 13, (2S)-2-amino-4-(butylsulfanyl)butanoic acid] | 12%
CC(C)CSCC[C@H](N)C(=O)O [compound 14, (2S)-2-amino-4-[(2-methylpropyl)sulfanyl]butanoic acid] | 0%
C=C/C=C/CSCC[C@H](N)C(=O)O [compound 16, (2S)-2-amino-4-[(2E)-penta-2,4-dien-1-ylsulfanyl]butanoic acid] | 4%
[N-]=[N+]=NCCSCC[C@H](N)C(=O)O [compound 17, (2S)-2-amino-4-[(2-azidoethyl)sulfanyl]butanoic acid] | 18%
CC(C)CCSCC[C@H](N)C(=O)O [compound 18, (2S)-2-amino-4-[(3-methylbutyl)sulfanyl]butanoic acid] | 0%
CC(C)=CCSCC[C@H](N)C(=O)O [compound 19, (2S)-2-amino-4-[(3-methylbut-2-en-1-yl)sulfanyl]butanoic acid] | 4%

Biological target: Escherichia coli MAT (eMAT) (Escherichia coli, UniProt P0A817)
Assay: as above
Assay type: biochemical
Settings: 2 mM Met analog, 1 mM ATP, 5 μM MAT, pH 8, 4 h, 37° C.; average of two assays
Experimental: as §1, with “intermediate. Putative SAM analog and SAM-derived degradative product formation was subsequently confirmed via high-resolution mass spectrometry (HRMS) analysis for all positive reactions (see Table 2).” for “intermediate.”
as §2
as §3, with “In vitro MAT reactions were conducted in a volume of 50 μl with 2 mM S/Se-alkylated analog (compounds 2-30), 1 mM ATP and 5 μM purified MAT in 25 mM Tris buffer pH 8.0, 5 mM MgCl2, 50 mM KCl for 4 h. The sMAT” for “The sMAT”

Structure (SMILES) | Percentage Turn-over eMAT
CCCCSCC[C@H](N)C(=O)O [compound 13, (2S)-2-amino-4-(butylsulfanyl)butanoic acid] | 0%
CC(C)CSCC[C@H](N)C(=O)O [compound 14, (2S)-2-amino-4-[(2-methylpropyl)sulfanyl]butanoic acid] | 0%
C=C/C=C/CSCC[C@H](N)C(=O)O [compound 16, (2S)-2-amino-4-[(2E)-penta-2,4-dien-1-ylsulfanyl]butanoic acid] | 4%
[N-]=[N+]=NCCSCC[C@H](N)C(=O)O [compound 17, (2S)-2-amino-4-[(2-azidoethyl)sulfanyl]butanoic acid] | 0%
CC(C)CCSCC[C@H](N)C(=O)O [compound 18, (2S)-2-amino-4-[(3-methylbutyl)sulfanyl]butanoic acid] | 0%
CC(C)=CCSCC[C@H](N)C(=O)O [compound 19, (2S)-2-amino-4-[(3-methylbut-2-en-1-yl)sulfanyl]butanoic acid] | 3%

Biological target: T2, Methanocaldococcus jannaschii MAT (mMAT) (Methanocaldococcus jannaschii, UniProt Q58605)
T2 sequence (Q58605 1-406): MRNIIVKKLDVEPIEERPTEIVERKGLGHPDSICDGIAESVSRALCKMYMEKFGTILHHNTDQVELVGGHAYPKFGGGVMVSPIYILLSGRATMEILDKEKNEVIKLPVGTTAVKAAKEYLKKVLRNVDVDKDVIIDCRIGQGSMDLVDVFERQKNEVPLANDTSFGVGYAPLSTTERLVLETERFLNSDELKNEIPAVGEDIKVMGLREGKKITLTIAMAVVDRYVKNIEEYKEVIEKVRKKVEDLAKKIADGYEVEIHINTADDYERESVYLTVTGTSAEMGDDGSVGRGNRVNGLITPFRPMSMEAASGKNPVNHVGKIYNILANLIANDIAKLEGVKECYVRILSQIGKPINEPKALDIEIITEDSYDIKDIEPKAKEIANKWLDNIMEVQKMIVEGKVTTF
Assay: not given
Assay type: biochemical
Settings: 2 mM Met analog, 1 mM ATP, 5 μM MAT, pH 8, 4 h, 65° C.; average of two assays
Experimental: as §1, §2, §3

Structure (SMILES) | Percentage Turn-over mMAT
CCCCSCC[C@H](N)C(=O)O [compound 13, (2S)-2-amino-4-(butylsulfanyl)butanoic acid] | 12%
CC(C)CSCC[C@H](N)C(=O)O [compound 14, (2S)-2-amino-4-[(2-methylpropyl)sulfanyl]butanoic acid] | 1%
C=C/C=C/CSCC[C@H](N)C(=O)O [compound 16, (2S)-2-amino-4-[(2E)-penta-2,4-dien-1-ylsulfanyl]butanoic acid] | 8%
[N-]=[N+]=NCCSCC[C@H](N)C(=O)O [compound 17, (2S)-2-amino-4-[(2-azidoethyl)sulfanyl]butanoic acid] | 29%
CC(C)CCSCC[C@H](N)C(=O)O [compound 18, (2S)-2-amino-4-[(3-methylbutyl)sulfanyl]butanoic acid] | 1%
CC(C)=CCSCC[C@H](N)C(=O)O [compound 19, (2S)-2-amino-4-[(3-methylbut-2-en-1-yl)sulfanyl]butanoic acid] | 13%
